From US20230131402A1, “SPIRO-LACTAM NMDA RECEPTOR MODULATORS AND USES THEREOF” (Aptinyx Inc., priority 2016, published 2023)
Where two headings read alike, the source gives them in different places.

Legend:
[1] = target: T1, NMDAR2D (Homo sapiens, UniProt O15399); assay: [3H]MK-801 binding, NMDAR2D expressing HEK cell membranes; type: biochemical; details: 50 μM glutamate; for EC50: read-out: NMDAR2D B: log EC50 (converted)
T1 construct: expressed in transfected cells; host or cells: HEK cells (membrane extract)
Protocol: (§1) Assays were conducted as described by Moskal et al., “GLYX-13: a monoclonal antibody-derived peptide that acts as an N-methyl-D-aspartate receptor modulator,” Neuropharmacology, 49, 1077-87, 2005. These studies were designed to determine if the test compounds act to facilitate NMDAR activation in NMDAR2A, NMDAR2B, NMDAR2C or NMDAR2D expressing HEK cell membranes as measured by increases in [^3H]MK-801 binding.
(§2) In the assay, 300 μg of NMDAR expressing HEK cell membrane extract protein was preincubated for 15 minutes at 25° C. in the presence of saturating concentrations of glutamate (50 μM) and varying concentrations of test compound (1×10^−15M−1×10^−7M), or 1 mM glycine. Following the addition of 0.3 μCi of [^3H]MK-801 (22.5 Ci/mmol), reactions were again incubated for 15 minutes at 25° C. (nonequilibrium conditions). Bound and free [^3H]MK-801 were separated via rapid filtration using a Brandel apparatus.
(§3) In analyzing the data, the DPM (disintegrations per minute) of [^3H]MK-801 remaining on the filter were measured for each concentration of test compound or for 1 mM glycine. The DPM values for each concentration of a ligand (N=2) were averaged. The baseline value was determined from the best fit curve of the DPM values modeled using the GraphPad program and the log(agonist) vs. response(three parameters) algorithm was then subtracted from all points in the dataset. The % maximal [^3H]MK-801 binding was then calculated relative to that of 1 mM glycine: all baseline subtracted DPM values were divided by the average value for 1 mM glycine. The EC50 and % maximal activity were then obtained from the best fit curve of the % maximal [^3H]MK-801 binding data modelled using the GraphPad program and the log(agonist) vs. response(three parameters) algorithm.
(§4) The tables below summarize the results for the wild type NMDAR agonists NMDAR2A, NMDAR2B, NMDAR2C, and NMDAR2D, and whether the compound is not an agonist (−), is an agonist (+), or is a strong agonist (++), where column A is based on the % maximal [^3H]MK-801 binding relative to 1 mM glycine (−=0; <100%=+; and >100%=++); and column B is based on log EC50 values (0=−; ≥1×10^−9M (e.g., −8)=+; and <1×10^−9M (e.g., −10)=++).

[2] = target: T2, NMDAR2A (Homo sapiens, UniProt Q12879); assay: [3H]MK-801 binding, NMDAR2A expressing HEK cell membranes; type: biochemical; details: 50 μM glutamate; for Emax: read-out: NMDAR2A A: % maximal [3H]MK-801 binding relative to 1 mM glycine; for EC50: read-out: NMDAR2A B: log EC50 (converted)
T2 construct: expressed in transfected cells; host or cells: HEK cells (membrane extract)
Protocol: as §1, §2, §3, §4

[3] = IV pharmacokinetics; type: in vivo, Sprague Dawley rats; details: rat, 2 mg/kg, normal saline (compounds marked * in 1% NMP and 99% normal saline); for Vd: read-out: Vss
Excerpt: The table below summarizes the results of the IV pharmacokinetics.

[4] = Oral pharmacokinetics (plasma, brain, CSF); details: rat, per os, 10 mg/kg
Protocol: Plasma, brain, and CSF samples were analyzed at various time points over a 24 hour period.

[5] = target: T3, NMDAR2C (Homo sapiens, UniProt Q14957); assay: [3H]MK-801 binding, NMDAR2C expressing HEK cell membranes; type: biochemical; details: 50 μM glutamate; for EC50: read-out: NMDAR2C B: log EC50 (converted)
T3 construct: expressed in transfected cells; host or cells: HEK cells (membrane extract)
Protocol: as §1, §2, §3, §4

[6] = target: T4, NMDAR2B (Homo sapiens, UniProt Q13224); assay: [3H]MK-801 binding, NMDAR2B expressing HEK cell membranes; type: biochemical; details: 50 μM glutamate; for EC50: read-out: NMDAR2B B: log EC50 (converted); for Emax: read-out: NMDAR2B A: % maximal [3H]MK-801 binding relative to 1 mM glycine
T4 construct: expressed in transfected cells; host or cells: HEK cells (membrane extract)
Protocol: as §1, §2, §3, §4

[7] = tested on: positive (hedonic) 50-kHz ultrasonic vocalizations (USVs); assay: Positive emotional learning (PEL) test; type: in vivo, rats; details: rat, PO, 1 h after administration
Protocol: Experiments were conducted as described in Burgdorf et al., “The effect of selective breeding for differential rates of 50-kHz ultrasonic vocalizations on emotional behavior in rats,” Devel. Psychobiol., 51:34-46 (2009). Rat 50-kHz ultrasonic vocalization (hedonic USVs) is a validated model for the study of positive affective state and is best elicited by rough-and-tumble play.
The PEL assay measures the acquisition of positive (hedonic) 50-kHz ultrasonic vocalizations (USVs) to a social stimulus, heterospecific rough and tumble play stimulation. Heterospecific rough-and-tumble play stimulation was administered by the experimenter's right hand. One hour after administration of test compound or vehicle negative control (0.5% sodium carboxymethyl cellulose in 0.9% sterile saline vehicle), animals received 3 min of heterospecific rough-and-tumble play that consisted of alternating 15 sec blocks of heterospecific play and 15 sec of no-stimulation. High frequency ultrasonic vocalizations (USVs) were recorded and analyzed by sonogram with Avasoft SASlab Pro (Germany) as previously described by Burgdorf et al., “Positive emotional learning is regulated in the medial prefrontal cortex by GluN2B-containing NMDA receptors,” Neuroscience, 192:515-523 (2011). Frequency modulated 50-kHz US V s that occurred during each of the no-stimulation periods were quantified to measure PEL. Animals were not habituated to play stimulation before testing. Positive emotional learning was measured during the conditioned stimulus (CS) trials preceding the tickle unconditioned stimulus (UCS) trials. Animals received 15 second trials consisting of 6 CS and 6 UCS trials each (3 min total).
The table below summarizes the findings. As each experiment includes its own vehicle group, an example (typical) vehicle score is shown. Max effect (mean number of 50 kHz USVs per 15 seconds) is reported as ∧: <6.0; *: 6.0-7.6; **: 7.7-10; ***: 10.1-20.

[8] = target: T5, NMDAR2D (Homo sapiens, UniProt O15399+Q05586); assay: [3H]MK-801 binding, NMDAR2D expressing HEK cell membranes; type: biochemical; details: 50 μM glutamate, read-out: NMDAR2D B: log EC50 (converted)
T5 construct: expressed in transfected cells; host or cells: HEK cells (membrane extract)
Protocol: as §1, §2, §3, §4

[9] = normal saline (compounds marked * in 1% NMP and 99% normal saline)
[10] = plasma, normal saline (compounds marked * in 1% NMP and 99% normal saline)
[11] = Sprague Dawley, in vivo, iv, read-out: C0
[12] = Sprague Dawley, plasma, po, Tmax, normal saline (compounds marked * in 1% NMP and 99% normal saline)

T2 sequence (Q12879 23-1464, species assumed, other chains not shown): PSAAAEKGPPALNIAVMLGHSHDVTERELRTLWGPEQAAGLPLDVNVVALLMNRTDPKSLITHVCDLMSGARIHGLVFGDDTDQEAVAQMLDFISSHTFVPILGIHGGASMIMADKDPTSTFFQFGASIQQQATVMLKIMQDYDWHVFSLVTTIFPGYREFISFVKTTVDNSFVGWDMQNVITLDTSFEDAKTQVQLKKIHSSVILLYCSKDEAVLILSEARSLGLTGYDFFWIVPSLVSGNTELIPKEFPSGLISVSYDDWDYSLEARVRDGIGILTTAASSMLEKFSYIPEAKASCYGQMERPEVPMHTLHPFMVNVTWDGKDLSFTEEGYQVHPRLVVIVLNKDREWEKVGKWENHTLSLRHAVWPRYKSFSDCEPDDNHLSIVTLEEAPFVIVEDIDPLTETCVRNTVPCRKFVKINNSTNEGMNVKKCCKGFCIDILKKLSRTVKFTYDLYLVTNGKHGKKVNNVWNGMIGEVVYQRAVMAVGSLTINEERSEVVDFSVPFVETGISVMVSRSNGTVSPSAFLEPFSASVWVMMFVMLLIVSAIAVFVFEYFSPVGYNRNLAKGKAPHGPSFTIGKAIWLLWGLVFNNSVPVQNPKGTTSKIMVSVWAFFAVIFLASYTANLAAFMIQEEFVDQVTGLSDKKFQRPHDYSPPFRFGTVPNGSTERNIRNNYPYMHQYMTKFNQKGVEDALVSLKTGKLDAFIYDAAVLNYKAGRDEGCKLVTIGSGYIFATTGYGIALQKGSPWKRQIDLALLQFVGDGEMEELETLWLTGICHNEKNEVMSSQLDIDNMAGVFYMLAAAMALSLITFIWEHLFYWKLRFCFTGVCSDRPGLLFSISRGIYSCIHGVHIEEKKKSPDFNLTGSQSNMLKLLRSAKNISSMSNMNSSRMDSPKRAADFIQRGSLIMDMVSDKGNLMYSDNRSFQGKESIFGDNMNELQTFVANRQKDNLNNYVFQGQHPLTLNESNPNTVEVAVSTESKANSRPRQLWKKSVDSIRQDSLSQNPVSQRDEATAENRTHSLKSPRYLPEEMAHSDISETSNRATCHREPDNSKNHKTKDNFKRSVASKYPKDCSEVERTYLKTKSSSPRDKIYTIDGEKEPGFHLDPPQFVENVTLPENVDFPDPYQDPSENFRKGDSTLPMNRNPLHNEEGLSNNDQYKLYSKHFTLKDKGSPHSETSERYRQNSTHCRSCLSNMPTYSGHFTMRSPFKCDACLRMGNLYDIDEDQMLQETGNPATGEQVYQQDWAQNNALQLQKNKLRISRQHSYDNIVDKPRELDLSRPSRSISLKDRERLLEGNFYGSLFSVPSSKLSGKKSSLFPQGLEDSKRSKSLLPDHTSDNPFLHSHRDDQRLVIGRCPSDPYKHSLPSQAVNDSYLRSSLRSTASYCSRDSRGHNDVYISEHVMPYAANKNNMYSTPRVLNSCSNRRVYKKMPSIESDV
T4 sequence (Q13224 27-1484, species assumed, other chains not shown): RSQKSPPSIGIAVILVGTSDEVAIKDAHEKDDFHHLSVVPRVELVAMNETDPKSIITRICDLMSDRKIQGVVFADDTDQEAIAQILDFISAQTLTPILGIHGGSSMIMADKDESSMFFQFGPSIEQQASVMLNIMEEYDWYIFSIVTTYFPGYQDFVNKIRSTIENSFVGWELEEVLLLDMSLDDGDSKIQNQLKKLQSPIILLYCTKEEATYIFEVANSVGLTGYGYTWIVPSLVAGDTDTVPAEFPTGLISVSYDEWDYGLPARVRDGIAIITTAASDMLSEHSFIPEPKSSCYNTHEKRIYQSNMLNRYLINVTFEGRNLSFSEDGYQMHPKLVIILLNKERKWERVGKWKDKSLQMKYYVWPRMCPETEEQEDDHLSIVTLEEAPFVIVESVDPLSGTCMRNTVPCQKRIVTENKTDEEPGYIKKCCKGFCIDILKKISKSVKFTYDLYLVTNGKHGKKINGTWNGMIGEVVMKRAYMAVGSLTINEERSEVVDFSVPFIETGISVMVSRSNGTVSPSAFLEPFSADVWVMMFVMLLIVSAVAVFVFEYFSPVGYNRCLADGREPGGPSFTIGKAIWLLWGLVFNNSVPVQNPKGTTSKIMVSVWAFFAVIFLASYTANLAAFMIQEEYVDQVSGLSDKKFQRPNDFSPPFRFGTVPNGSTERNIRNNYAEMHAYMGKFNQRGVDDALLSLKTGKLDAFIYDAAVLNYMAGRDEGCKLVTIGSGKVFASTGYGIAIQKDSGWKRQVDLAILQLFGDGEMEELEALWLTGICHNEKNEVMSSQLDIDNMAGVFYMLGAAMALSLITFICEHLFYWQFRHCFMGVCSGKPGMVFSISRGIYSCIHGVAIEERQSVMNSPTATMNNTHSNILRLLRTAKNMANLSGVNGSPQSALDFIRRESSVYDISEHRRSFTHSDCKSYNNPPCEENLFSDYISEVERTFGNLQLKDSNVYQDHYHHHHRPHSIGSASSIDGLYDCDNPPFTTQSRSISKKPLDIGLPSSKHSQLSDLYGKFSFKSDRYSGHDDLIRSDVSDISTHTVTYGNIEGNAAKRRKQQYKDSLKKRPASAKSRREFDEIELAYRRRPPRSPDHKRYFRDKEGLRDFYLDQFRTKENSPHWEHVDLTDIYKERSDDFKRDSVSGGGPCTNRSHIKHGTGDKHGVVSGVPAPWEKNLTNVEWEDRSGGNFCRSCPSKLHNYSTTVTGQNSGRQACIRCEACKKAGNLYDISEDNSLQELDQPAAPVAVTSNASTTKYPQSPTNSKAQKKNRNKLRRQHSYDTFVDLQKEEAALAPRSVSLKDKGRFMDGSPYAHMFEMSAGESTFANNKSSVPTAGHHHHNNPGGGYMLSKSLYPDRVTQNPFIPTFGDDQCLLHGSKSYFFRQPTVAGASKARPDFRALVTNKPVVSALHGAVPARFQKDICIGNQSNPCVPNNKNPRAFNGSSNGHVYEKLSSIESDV
T3 sequence (Q14957 20-1233, species assumed, other chains not shown): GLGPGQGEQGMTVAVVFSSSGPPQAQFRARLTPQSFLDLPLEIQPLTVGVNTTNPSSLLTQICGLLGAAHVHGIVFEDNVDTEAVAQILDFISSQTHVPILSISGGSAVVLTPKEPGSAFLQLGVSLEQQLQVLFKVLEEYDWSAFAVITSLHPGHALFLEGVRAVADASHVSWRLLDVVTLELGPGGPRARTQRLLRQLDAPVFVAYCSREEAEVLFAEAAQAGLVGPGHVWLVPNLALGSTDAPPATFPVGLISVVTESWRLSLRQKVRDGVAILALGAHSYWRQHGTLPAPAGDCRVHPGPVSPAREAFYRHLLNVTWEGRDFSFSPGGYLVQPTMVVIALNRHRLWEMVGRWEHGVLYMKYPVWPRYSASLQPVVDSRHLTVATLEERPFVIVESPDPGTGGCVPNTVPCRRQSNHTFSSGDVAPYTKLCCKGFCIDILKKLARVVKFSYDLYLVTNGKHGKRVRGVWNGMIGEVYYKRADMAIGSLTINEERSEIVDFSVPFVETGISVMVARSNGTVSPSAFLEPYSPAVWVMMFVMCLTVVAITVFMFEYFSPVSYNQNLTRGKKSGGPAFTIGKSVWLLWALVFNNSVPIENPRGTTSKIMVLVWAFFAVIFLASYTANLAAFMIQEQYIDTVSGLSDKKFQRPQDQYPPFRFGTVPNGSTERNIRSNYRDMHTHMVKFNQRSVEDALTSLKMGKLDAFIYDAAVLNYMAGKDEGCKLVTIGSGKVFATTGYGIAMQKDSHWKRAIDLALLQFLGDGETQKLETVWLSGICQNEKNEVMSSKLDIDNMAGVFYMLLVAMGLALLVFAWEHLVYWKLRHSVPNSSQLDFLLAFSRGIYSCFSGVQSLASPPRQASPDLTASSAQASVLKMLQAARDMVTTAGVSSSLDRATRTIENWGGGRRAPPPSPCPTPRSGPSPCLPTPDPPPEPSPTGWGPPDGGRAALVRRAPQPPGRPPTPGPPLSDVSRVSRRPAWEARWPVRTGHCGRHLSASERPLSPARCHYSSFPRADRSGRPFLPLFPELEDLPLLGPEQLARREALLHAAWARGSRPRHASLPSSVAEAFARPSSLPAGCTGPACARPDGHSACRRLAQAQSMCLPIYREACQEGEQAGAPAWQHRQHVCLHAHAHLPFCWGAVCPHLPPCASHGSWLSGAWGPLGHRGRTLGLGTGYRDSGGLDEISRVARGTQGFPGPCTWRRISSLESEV

CSF Cmax [4] [ng/mL]	EC50 [6] [nM]	Emax [2] [%]	Emax [6] [%]	Compound	NMDAR2D A: % maximal [3H]MK-801 binding relative to 1 mM glycine [1]	NMDAR2A A: % maximal [3H]MK-801 binding relative to 1 mM glycine [2]	Cmax [4, 10] [ng/mL]	NMDAR2C A: % maximal [3H]MK-801 binding relative to 1 mM glycine [5]	EC50 [5] [nM]	NMDAR2B A: % maximal [3H]MK-801 binding relative to 1 mM glycine [6]	EC50 [2] [nM]	Max Effect (mean number of 50 kHz USVs per 15 seconds) ([7]; dose .1 mg/kg)	further results
–	< 1	–	–	CC(C)(C)OC(=O)N1CCN(C(=O)OC(C)(C)C)C2(CNC2=O)C1 (single isomer, unassigned) [EE-2, Di-Tert-Butyl 1-Oxo-2,5,8-Triazaspiro[3.5]Nonane-5,8-Dicarboxylate]	− (−=0)	− (−=0)	–	+ (<100%=+)	< 1	+ (<100%=+)	–	–	–
–	–	–	–	CN1CCN(Cc2ccccc2)C2(CNC2=O)C1 (single isomer, unassigned) [EG-2, 5-Benzyl-8-Methyl-2,5,8-Triazaspiro[3.5]Nonan-1-One]	+ (<100%=+)	− (−=0)	3526.63	+ (<100%=+)	< 1	− (−=0)	–	–	EC50 [8]: < 1 nM; AUC(0-t) ([3]; Sprague Dawley, in vivo, iv): 400 ng·h/mL; clearance ([3]; Sprague Dawley, in vivo, iv): 83.3 mL/min/kg; half-life ([3]; Sprague Dawley, in vivo, iv): 28.8 min; C0 [3, 11]: 1100 ng/mL; Vd ([3]; Sprague Dawley, in vivo, iv): 1.87 L/kg; Tmax [4, 12]: 15 min; % F [4]: 100%; AUClast [4, 9]: 3082.39 ng·h/mL
81.6	< 1	< 100	–	C[C@@H](O)[C@H](N)C(=O)N1CCNC2(CNC2=O)C1 (single isomer, unassigned) [EK-2, 8-(L-Threonyl)-2,5,8-Triazaspiro[3.5]Nonan-1-One]	–	–	1910.5	–	–	+ (<100%=+)	> 1	* (*: 6.0-7.6)	Tmax [4, 9]: 60 min
56.9	< 1	0	< 100	C[C@@H](O)[C@H](N)C(=O)N1CCN(Cc2ccccc2)C2(CNC2=O)C1 (single isomer, unassigned) [EL-1, 8-(L-Threonyl)-5-Benzyl-2,5,8-Triazaspiro[3.5]Nonan-1-One]	–	–	–	–	–	–	–	*** (***: 10.1-20)	AUC(0-t) ([3]; Sprague Dawley, in vivo, iv): 4320 ng·h/mL; clearance ([3]; Sprague Dawley, in vivo, iv): 7.35 mL/min/kg; half-life ([3]; Sprague Dawley, in vivo, iv): 406 min; C0 [3, 11]: 3250 ng/mL; Vd ([3]; Sprague Dawley, in vivo, iv): 2.12 L/kg; bioavailability ([4]; Sprague Dawley, plasma, po, % F): 90%; AUC(0-t) ([4]; Sprague Dawley, plasma, po, AUClast, normal saline (compounds marked * in 1% NMP and 99% normal saline)): 19400 ng·h/mL; Cmax ([4]; Sprague Dawley, plasma, po, Cmax, normal saline (compounds marked * in 1% NMP and 99% normal saline)): 4980 ng/mL; Tmax [4, 12]: 30 min; Brain Cmax [4]: 143 ng/mL
–	< 1	< 100	> 100	C[C@@H](O)[C@H](N)C(=O)N1CCN(C(=O)OC(C)(C)C)CC12CNC2=O (stereo partly drawn) [EC-2, Tert-Butyl 5-(L-Threonyl)-1-Oxo-2,5,8-Triazaspiro[3.5]Nonane-8-Carboxylate]	–	–	–	–	–	–	> 1	** (**: 7.7-10)	–
–	< 1	–	–	CN1CCN(C(=O)OC(C)(C)C)CC12CN(CC(N)=O)C2=O (stereo not drawn) [ER-118]	++ (>100%=++)	− (−=0)	–	− (−=0)	–	+ (<100%=+)	–	–	EC50 [1]: < 1 nM

Compound	CSF Cmax [4] [ng/mL]	EC50 [6] [nM]	Emax [2] [%]	Emax [6] [%]	NMDAR2D A: % maximal [3H]MK-801 binding relative to 1 mM glycine [1]	NMDAR2A A: % maximal [3H]MK-801 binding relative to 1 mM glycine [2]	Cmax [4, 10] [ng/mL]	NMDAR2C A: % maximal [3H]MK-801 binding relative to 1 mM glycine [5]	EC50 [5] [nM]	NMDAR2B A: % maximal [3H]MK-801 binding relative to 1 mM glycine [6]	EC50 [2] [nM]	Max Effect (mean number of 50 kHz USVs per 15 seconds) ([7]; dose .1 mg/kg)	further results
O=C1NCC12CNCCN2Cc1ccccc1 (single isomer, unassigned) [ED-2, 5-Benzyl-2,5,8-Triazaspiro[3.5]Nonan-1-One]	178.3	< 1	–	–	+ (<100%=+)	− (−=0)	1563.1	+ (<100%=+)	< 1	+ (<100%=+)	–	–	EC50 [1]: < 1 nM; AUClast [3]: 806.5 ng·h/mL; C0 [3]: 1793.2 ng/mL; Cl [3]: 40.6 mL/min/kg; T1/2 [3]: 32.4 min; Vss [3]: 1.45 L/kg; % F [4]: 54%; Brain Cmax [4]: 478.5 ng/mL; AUClast [4, 9]: 2178.53 ng·h/mL; Tmax [4, 9]: 15 min; Max Effect (mean number of 50 kHz USVs per 15 seconds) ([7]; dose .001-1 mg/kg): *** (***: 10.1-20)
CN1CCNC2(CNC2=O)C1 (stereo not drawn) [EH-1, 8-Methyl-2,5,8-Triazaspiro[3.5]Nonan-1-One]	–	< 1	< 100	< 100	+ (<100%=+)	–	–	− (−=0)	–	–	< 1	–	EC50 [8]: < 1 nM
CN1CCNC2(CNC2=O)C1 (stereo not drawn) [EH-2, 8-Methyl-2,5,8-Triazaspiro[3.5]Nonan-1-One]	–	< 1	–	–	− (−=0)	+ (<100%=+)	–	− (−=0)	–	+ (<100%=+)	< 1	–	–
